Experimental data from US20260234568A1, “TUMOR STORAGE AND CELL CULTURE COMPOSITIONS” (Iovance Biotherapeutics, Inc., priority 2021, published 2026).
Where two headings read alike, the source gives them in different places.

How the values were obtained:
[1] = system: Pre-REP TIL; type: cell-based
Description: Phase 1: Small Scale Evaluation of Various Antibiotics in shipping medium and CM1 were conducted in 2 separate rounds using 2 different tumors as shown in Tables 53 and 54. The cultures were terminated after the Pre-REP. All the overnight incubations in HTS included 2.5 μg/mL Amphotericin B (or 10 μg/mL for the “high AmpB concentration” condition) and 50 μg/mL gentamicin
All the test and control conditions were tested in quadruplicates. Total Viable Cells and % Viability was recorded on Day 11 of Pre-REP.

[2] = system: E. faecalis; test: Antibiotics on growth of bacteria in culture media (HTS then CM1); type: cell-based; conditions: HTS 24 hours at 2-8° C., then CM1 11 days, Gentamicin 50 μg/mL, Vancomycin 100 μg/mL
Description: Additional experiments were performed to test the ability of vancomycin to prevent growth of vancomycin sensitive bacteria in culture medium. In these experiments, the following antibiotics were added to Gram+bacteria S. aureus and E. faecalis in hypothermosol (HTS) at three different concentrations of bacteria: • a. Gentamicin (50 μg/mL) • b. Gentamicin (50 μg/mL)+Vancomycin (100 μg/mL) • c. Vancomycin (100 μg/mL)
The mixtures were incubated at 24 hours at 2-8° C. and then 1 mL of each of the samples were added to 20 mL of CM1 medium in the same concentrations of antibiotics above. The mixtures were incubated for 11 days and bacterial growth was visually assessed.

[3] = system: S. aureus; conditions: for bacterial growth, visually assessed: S. aureus (strain 1), inoculated tissue fragments, washed 3×, 11 days
Description: Additional experiments were performed to test the ability of vancomycin to prevent growth of vancomycin sensitive bacteria in culture medium. In these experiments, tissue fragments were inoculated in HTS with three different loads of S. aureus and E. faecalis bacteria and the following antibiotics: • a.
The 6 HTS inoculates (iHTS) shown were incubated at 24 hours at 2-8° C. and washed 3× with tumor wash buffer with the same concentrations of antibiotics above. The tumor samples were incubated for 11 days and bacterial growth was visually assessed.

[4] = system: E. faecalis; test: Antibiotics on bacterial growth of inoculated tissue fragments (HTS, wash, CM1); type: cell-based; conditions: for bacterial growth, visually assessed: inoculated tissue fragments, washed 3×, 11 days
Description: Gentamicin (50 μg/mL) • b. […] Vancomycin (100 μg/mL)

[5] = system: Pre-REP TIL; test: Phase II full scale Pre-REP: extended phenotype of Day 11 samples; conditions: 100 μg/mL in tumor shipping medium and CM1 Pre-REP media
Description: The received tumor was separated into 2 equal portions and stored overnight similarly to the overnight incubation in phase I of testing. The chosen antibiotic condition was tested against Gentamicin Sulfate control at full scale Pre-REP according to the Day 0 Gen 2 Batch Record. TVC, viability, identity, function, and extended phenotyping data were obtained.
Both antibiotics were tested in shipping medium and CM1 at a concentration of 100 μg/mL.

[6] = system: S. aureus; test: Antibiotics on growth of bacteria in culture media (HTS then CM1); type: cell-based; conditions: S. aureus (strain 1), HTS 24 hours at 2-8° C., then CM1 11 days, Gentamicin 50 μg/mL, Vancomycin 100 μg/mL
Description: In these experiments, the following antibiotics were added to Gram+bacteria S. aureus and E. faecalis in hypothermosol (HTS) at three different concentrations of bacteria: • a. Gentamicin (50 μg/mL) • b. […] Vancomycin (100 μg/mL)

Row | SMILES | cytotoxicity / impact on Pre-REP TIL cell growth (in words) ([1]; Day 11 of Pre-REP, quadruplicates, with 50 μg/mL gentamicin) | bacterial growth, visually assessed [2] | bacterial growth, visually assessed ([2]; listed as Vanco) | bacterial growth, visually assessed ([3]; Bacterial Load High) | bacterial growth, visually assessed ([3]; Bacterial Load Low) | bacterial growth, visually assessed ([3]; Bacterial Load Med) | bacterial growth (summary in words) ([3]; S. aureus, all the bacterial loads tested) | bacterial growth, visually assessed ([4]; Bacterial Load High) | bacterial growth, visually assessed ([4]; Bacterial Load Low) | bacterial growth, visually assessed ([4]; Bacterial Load Med) | bacterial growth (summary in words) ([4]; all the bacterial loads tested) | effect on the Pre-REP cell product (TVC, Viability, Identity, Function, Extended Phenotyping; in words) [5] | cytotoxicity / impact on Pre-REP TIL cell growth (in words) [1] | bacterial growth, visually assessed [6] | bacterial growth, visually assessed ([6]; listed as Vanco)
1 | C[C@@H]1[C@H](O)[C@@H](C)/C=C/C=C/C=C/C=C/C=C/C=C/C=C/[C@H](O[C@@H]2O[C@H](C)[C@@H](O)[C@H](N)[C@@H]2O)C[C@@H]2O[C@](O)(C[C@@H](O)C[C@@H](O)[C@H](O)CC[C@@H](O)C[C@@H](O)CC(=O)O[C@H]1C)C[C@H](O)[C@H]2C(=O)O [amphotericin B] | did not appear cytotoxic | – | – | – | – | – | – | – | – | – | – | – | – | – | –
2 | CN[C@H](CC(C)C)C(=O)N[C@H]1C(=O)N[C@@H](CC(N)=O)C(=O)N[C@H]2C(=O)N[C@H]3C(=O)N[C@H](C(=O)N[C@H](C(=O)O)c4cc(O)cc(O)c4-c4cc3ccc4O)[C@H](O)c3ccc(c(Cl)c3)Oc3cc2cc(c3O[C@@H]2O[C@H](CO)[C@@H](O)[C@H](O)[C@H]2O[C@H]2C[C@](C)(N)[C@H](O)[C@H](C)O2)Oc2ccc(cc2Cl)[C@H]1O [vancomycin] | – | inhibited grown | No Growth | No Growth | No Growth | No Growth | no observed growth | No Growth | No Growth | No Growth | no observed growth | no deleterious effect | least cytotoxicity | inhibited grown | No Growth
